Source: article PMC8745178, “Methyl 2-Halo-4-Substituted-5-Sulfamoyl-Benzoates as High Affinity and Selective Inhibitors of Carbonic Anhydrase IX” (International Journal of Molecular Sciences, 2021)

Legend:
[1] = target: CAXIII (Homo sapiens, UniProt Q8N1Q1); test: fluorescent thermal shift assay (FTSA), CAXIII; type: binding; settings: 37 °C; for ΔGintr CAXIII: converted from Kd_intr, independent of pH; for ΔGobs CAXIII: converted from Kd_obs, pH 7.0, FTSA
[2] = target: CAVI (Homo sapiens, UniProt P23280); test: fluorescent thermal shift assay (FTSA), CAVI; type: binding; settings: 37 °C; for ΔGintr CAVI: converted from Kd_intr, independent of pH; for ΔGobs CAVI: converted from Kd_obs, pH 7.0, FTSA
[3] = target: CAII (Homo sapiens, UniProt P00918); test: fluorescent thermal shift assay (FTSA), CAII; type: binding; settings: 37 °C; for ΔGintr CAII: converted from Kd_intr, independent of pH; for ΔGobs CAII: converted from Kd_obs, pH 7.0, FTSA
[4] = target: CAIX (Homo sapiens, UniProt Q16790); test: fluorescent thermal shift assay (FTSA), CAIX; type: binding; settings: for ΔGobs CAIX: pH 7
[5] = target: CAVB (Homo sapiens, UniProt Q9Y2D0); test: fluorescent thermal shift assay (FTSA), CAVB; type: binding; settings: 37 °C; for ΔGintr CAVB: converted from Kd_intr, independent of pH; for ΔGobs CAVB: converted from Kd_obs, pH 7.0, FTSA
[6] = determination of pKa of the sulfonamide group by UV-VIS spectra at various pH; type: physicochemical; settings: for f RSO2NH-, fraction of deprotonated sulfonamide: at pH 7.0, calculated from pKa; for pKa: calculated from spectra at various pH, 37 °C
[7] = target: CAIV (Homo sapiens, UniProt P22748); test: fluorescent thermal shift assay (FTSA), CAIV; type: binding; settings: 37 °C; for ΔGintr CAIV: converted from Kd_intr, independent of pH; for ΔGobs CAIV: converted from Kd_obs, pH 7.0, FTSA
[8] = target: CAI (Homo sapiens, UniProt P00915); test: fluorescent thermal shift assay (FTSA), CAI; type: binding; settings: 37 °C; for ΔGintr CAI: converted from Kd_intr, independent of pH; for ΔGobs CAI: converted from Kd_obs, pH 7.0, FTSA
[9] = target: CAXIV (Homo sapiens, UniProt Q9ULX7); test: fluorescent thermal shift assay (FTSA), CAXIV; type: binding; settings: 37 °C; for ΔGintr CAXIV: converted from Kd_intr, independent of pH; for ΔGobs CAXIV: converted from Kd_obs, pH 7.0, FTSA
[10] = target: CAVII (Homo sapiens, UniProt P43166); test: fluorescent thermal shift assay (FTSA), CAVII; type: binding; settings: 37 °C; for ΔGobs CAVII: converted from Kd_obs, pH 7.0, FTSA; for ΔGintr CAVII: converted from Kd_intr, independent of pH
[11] = target: CAIII (Homo sapiens, UniProt P07451); test: fluorescent thermal shift assay (FTSA), CAIII; type: binding; settings: 37 °C; for ΔGintr CAIII: converted from Kd_intr, independent of pH; for ΔGobs CAIII: converted from Kd_obs, pH 7.0, FTSA
[12] = target: CAXII (Homo sapiens, UniProt O43570); test: fluorescent thermal shift assay (FTSA), CAXII; type: binding; settings: 37 °C; for ΔGintr CAXII: converted from Kd_intr, independent of pH; for ΔGobs CAXII: converted from Kd_obs, pH 7.0, FTSA
[13] = target: CAVA (Homo sapiens, UniProt P35218); test: fluorescent thermal shift assay (FTSA), CAVA; type: binding; settings: 37 °C; for ΔGintr CAVA: converted from Kd_intr, independent of pH; for ΔGobs CAVA: converted from Kd_obs, pH 7.0, FTSA
CAVA, sequence (P35218 39-305): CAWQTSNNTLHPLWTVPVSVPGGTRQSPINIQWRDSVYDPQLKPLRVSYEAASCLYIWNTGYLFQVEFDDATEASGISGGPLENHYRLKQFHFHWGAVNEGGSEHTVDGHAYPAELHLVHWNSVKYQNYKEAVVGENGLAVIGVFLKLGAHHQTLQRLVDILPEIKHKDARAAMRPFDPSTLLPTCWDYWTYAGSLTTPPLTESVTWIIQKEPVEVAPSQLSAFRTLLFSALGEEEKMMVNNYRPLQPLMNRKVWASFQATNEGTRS

CAVII, sequence (P43166 whole entry): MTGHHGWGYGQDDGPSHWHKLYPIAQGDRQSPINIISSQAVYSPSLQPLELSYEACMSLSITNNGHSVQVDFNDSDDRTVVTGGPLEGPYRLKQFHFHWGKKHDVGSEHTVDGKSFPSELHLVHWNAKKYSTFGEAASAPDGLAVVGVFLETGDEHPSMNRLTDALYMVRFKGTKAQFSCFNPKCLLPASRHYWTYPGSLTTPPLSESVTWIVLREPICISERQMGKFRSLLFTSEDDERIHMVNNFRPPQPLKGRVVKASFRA
CAIII, sequence (P07451 whole entry): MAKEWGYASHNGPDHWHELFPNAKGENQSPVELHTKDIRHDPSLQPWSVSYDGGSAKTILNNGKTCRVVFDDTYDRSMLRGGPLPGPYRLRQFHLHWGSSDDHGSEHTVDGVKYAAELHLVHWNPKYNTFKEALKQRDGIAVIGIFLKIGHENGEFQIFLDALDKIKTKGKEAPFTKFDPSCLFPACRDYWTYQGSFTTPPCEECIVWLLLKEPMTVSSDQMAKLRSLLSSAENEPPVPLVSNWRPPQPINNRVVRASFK
CAXII, sequence (O43570 25-354): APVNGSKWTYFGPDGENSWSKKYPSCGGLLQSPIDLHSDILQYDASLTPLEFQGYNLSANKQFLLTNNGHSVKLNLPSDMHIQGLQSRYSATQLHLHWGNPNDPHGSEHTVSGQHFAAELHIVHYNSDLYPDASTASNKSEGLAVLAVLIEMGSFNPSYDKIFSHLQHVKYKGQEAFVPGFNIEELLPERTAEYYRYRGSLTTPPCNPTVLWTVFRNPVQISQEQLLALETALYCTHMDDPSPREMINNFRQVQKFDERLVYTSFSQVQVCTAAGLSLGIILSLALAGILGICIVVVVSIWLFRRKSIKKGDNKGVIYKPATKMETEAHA
CAVI, sequence (P23280 18-308): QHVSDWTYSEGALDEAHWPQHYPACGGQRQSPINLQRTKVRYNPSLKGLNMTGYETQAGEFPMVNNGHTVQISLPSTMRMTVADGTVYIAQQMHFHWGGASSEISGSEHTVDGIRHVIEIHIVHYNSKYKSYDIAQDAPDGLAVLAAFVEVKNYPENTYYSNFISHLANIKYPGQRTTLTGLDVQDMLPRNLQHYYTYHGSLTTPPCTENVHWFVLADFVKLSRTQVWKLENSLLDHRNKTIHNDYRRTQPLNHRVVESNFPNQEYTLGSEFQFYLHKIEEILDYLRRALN
CAI, sequence (P00915 whole entry): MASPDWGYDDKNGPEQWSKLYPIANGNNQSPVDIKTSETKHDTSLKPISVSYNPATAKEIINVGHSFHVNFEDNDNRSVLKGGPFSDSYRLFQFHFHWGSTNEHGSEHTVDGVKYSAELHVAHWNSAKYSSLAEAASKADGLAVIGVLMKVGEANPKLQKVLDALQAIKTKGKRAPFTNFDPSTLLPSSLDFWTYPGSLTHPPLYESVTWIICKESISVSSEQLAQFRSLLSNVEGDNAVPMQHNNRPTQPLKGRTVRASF
CAVB, sequence (Q9Y2D0 34-317): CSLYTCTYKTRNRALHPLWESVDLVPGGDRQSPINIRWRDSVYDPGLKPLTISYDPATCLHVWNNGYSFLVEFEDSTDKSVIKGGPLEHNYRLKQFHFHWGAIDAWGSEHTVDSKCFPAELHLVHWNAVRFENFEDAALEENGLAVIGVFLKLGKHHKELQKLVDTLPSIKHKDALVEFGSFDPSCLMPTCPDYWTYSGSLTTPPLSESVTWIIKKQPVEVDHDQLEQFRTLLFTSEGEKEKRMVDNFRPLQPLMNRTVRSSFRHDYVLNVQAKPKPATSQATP
CAXIV, sequence (Q9ULX7 16-337): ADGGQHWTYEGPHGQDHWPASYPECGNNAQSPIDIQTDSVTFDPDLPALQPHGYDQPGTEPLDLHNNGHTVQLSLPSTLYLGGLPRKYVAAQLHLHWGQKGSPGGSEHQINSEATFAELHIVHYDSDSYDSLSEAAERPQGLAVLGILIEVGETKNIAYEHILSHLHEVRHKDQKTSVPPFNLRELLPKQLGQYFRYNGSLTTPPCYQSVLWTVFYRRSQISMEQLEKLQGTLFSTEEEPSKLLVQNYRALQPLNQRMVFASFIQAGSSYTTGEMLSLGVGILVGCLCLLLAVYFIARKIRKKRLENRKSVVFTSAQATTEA
CAIV, sequence (P22748 19-312): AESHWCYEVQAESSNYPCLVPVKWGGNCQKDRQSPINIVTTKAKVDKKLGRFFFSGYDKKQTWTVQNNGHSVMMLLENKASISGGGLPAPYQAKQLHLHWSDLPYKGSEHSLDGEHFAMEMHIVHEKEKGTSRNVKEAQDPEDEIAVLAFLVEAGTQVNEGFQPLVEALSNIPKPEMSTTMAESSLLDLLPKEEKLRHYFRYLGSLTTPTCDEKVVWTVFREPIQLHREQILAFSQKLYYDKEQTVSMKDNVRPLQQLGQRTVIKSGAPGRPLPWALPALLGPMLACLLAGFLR
CAXIII, sequence (Q8N1Q1 whole entry): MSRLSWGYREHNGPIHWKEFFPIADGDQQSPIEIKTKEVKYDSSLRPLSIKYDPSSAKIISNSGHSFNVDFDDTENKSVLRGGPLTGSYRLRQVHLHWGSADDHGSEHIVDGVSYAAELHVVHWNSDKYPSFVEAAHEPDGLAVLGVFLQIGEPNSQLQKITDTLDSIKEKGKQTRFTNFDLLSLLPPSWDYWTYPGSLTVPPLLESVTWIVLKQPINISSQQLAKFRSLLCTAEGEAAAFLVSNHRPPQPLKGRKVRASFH

Compound | ΔGintr CAXIII [1] [kcal/mol] | ΔGobs CAXIII [1] [kcal/mol] | ΔGintr CAVI [2] [kcal/mol] | ΔGobs CAVI [2] [kcal/mol] | ΔGintr CAII [3] [kcal/mol] | ΔGobs CAII [3] [kcal/mol] | ΔGintr CAIX [4] [kcal/mol] | ΔGobs CAIX [4] [kcal/mol] | ΔGintr CAVB [5] [kcal/mol] | ΔGobs CAVB [5] [kcal/mol] | f RSO2NH-, fraction of deprotonated sulfonamide [6] [%] | pKa [6] | ΔGintr CAIV [7] [kcal/mol] | ΔGobs CAIV [7] [kcal/mol] | ΔGintr CAI [8] [kcal/mol] | ΔGobs CAI [8] [kcal/mol] | ΔGintr CAXIV [9] [kcal/mol] | ΔGobs CAXIV [9] [kcal/mol] | ΔGobs CAVII [10] [kcal/mol] | ΔGintr CAVII [10] [kcal/mol] | other results
COC(=O)c1cc(S(N)(=O)=O)c(Cl)cc1SCCc1ccccc1 [Compound 5d, Methyl 4-chloro-2-(2-phenylethylsulfanyl)-5-sulfamoylbenzoate] | -14.9 | -11.5 | -13.4 | -8.63 | -14.5 | -10.7 | -15.3 | -11.2 | -15.6 | -11.9 | 0.5 | 9.3 | -12.5 | -8.48 | -11.1 | -7.74 | -14.9 | -11 | -10.8 |  | 
COC(=O)c1cc(S(N)(=O)=O)c(S(=O)(=O)C2CCCCC2)cc1Cl [Compound 7b, Methyl 2-chloro-4-cyclohexylsulfonyl-5-sulfamoylbenzoate] |  | -5.9 | -10.7 | -5.28 | -10.6 | -6.09 | -11.9 | -7.15 | -10.1 | -5.66 | 0.2 | 9.8 |  |  | -9.7 | -5.66 | -10.5 | -5.9 | ≥ -5.26 | ≥ -9.8 | ΔGintr CAIII [11]: -10.5 kcal/mol; ΔGobs CAIII [11]: -5.66 kcal/mol; ΔGintr CAXII [12]: -10.5 kcal/mol; ΔGobs CAXII [12]: -5.93 kcal/mol; ΔGintr CAVA [13]: -9.89 kcal/mol; ΔGobs CAVA [13]: -5.66 kcal/mol
COC(=O)c1cc(S(N)(=O)=O)c(Cl)cc1S(=O)(=O)C1CCCCC1 [Compound 9b, Methyl 4-chloro-2-cyclohexylsulfonyl-5-sulfamoyl-benzoate] | -14 | -12.1 | -13.7 | -10.5 | -15.3 | -13 |  | -12.8 | -15.1 | -13 | 5.9 | 8.2 | -12 | -9.51 | -12 | -10.2 | -15.4 | -13 | -13.8 | -16.2 | ΔGintr CAVA [13]: -10.9 kcal/mol; ΔGobs CAVA [13]: -8.94 kcal/mol
COC(=O)c1cc(S(N)(=O)=O)c(Cl)cc1S(=O)(=O)c1cccc2ccccc12 [Compound 9f, Methyl 4-chloro-2-(1-naphthylsulfonyl)-5-sulfamoylbenzoate] | -14.7 | -12.6 | -13.4 | -9.94 | -15.2 | -12.6 |  | -11.4 | -14.5 | -12 | 3.8 | 8.4 | -13.1 | -10.3 | -11.8 | -9.7 | -14.5 | -11.9 | -13 | -15.6 | ΔGintr CAXII [12]: -13 kcal/mol; ΔGobs CAXII [12]: -10.4 kcal/mol
COC(=O)c1cc(S(N)(=O)=O)c(SC2CCCCC2)cc1Br [Compound 4b, Methyl 2-bromo-4-(cyclohexylsulfanyl)-5-sulfamoylbenzoate] | -14.4 | -10.6 | -14.1 | -8.87 | -13.7 | -9.51 | -18.5 | -14.1 | -11.9 | -7.77 | 0.3 |  |  |  | -11.1 | -7.34 | -15.2 | -10.9 | -9.44 | -13.7 | ΔGintr CAIII [11]: -10.7 kcal/mol; ΔGobs CAIII [11]: -6.14 kcal/mol; ΔGintr CAVA [13]: ≥ -9.2 kcal/mol; ΔGobs CAVA [13]: ≥ -5.26 kcal/mol
COC(=O)c1cc(S(N)(=O)=O)c(SC2CCCCCCCCCCC2)cc1Cl [Compound 3e, Methyl 2-chloro-4-(cyclododecylsulfanyl)-5-sulfamoylbenzoate] | -14.5 | -10.8 | -13.3 | -8.08 | -13.3 | -9.08 | -17.7 | -13.3 | -10 | -5.93 | 0.3 | 9.6 | -14 | -9.51 | -10.7 | -7 | -14.8 | -10.5 | -7.77 | -12 | ΔGintr CAIII [11]: ≥ -9.82 kcal/mol; ΔGobs CAIII [11]: ≥ -5.26 kcal/mol; ΔGintr CAVA [13]: ≥ -9.2 kcal/mol; ΔGobs CAVA [13]: ≥ -5.26 kcal/mol
COC(=O)c1cc(S(N)(=O)=O)c(Br)cc1Br [Compound 2, Methyl 2,4-dibromo-5-sulfamoyl-benzoate] | -12.8 | -10.2 | -13.3 | -9.3 | -13 | -9.99 | -13.2 | -9.85 | -13.6 | -10.6 | 1.6 | 8.8 |  |  | -9.27 | -6.67 | -13.6 | -10.5 | -10.3 | -13.5 | ΔGintr CAIII [11]: ≥ -8.7 kcal/mol; ΔGobs CAIII [11]: ≥ -5.26 kcal/mol; ΔGintr CAXII [12]: -12.3 kcal/mol; ΔGobs CAXII [12]: -9.2 kcal/mol
